According to ChEMBL document CHEMBL1201862, “PubChem BioAssay data set” (2004):
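Five compound concentrations were applied to cells in 96-well plates for 48 hours; endpoints were derived by simple linear interpolation of the resulting dose-response curve. GI50 marks 50% less growth.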 Calls of active or inactive are those of the source. Rule as the data show it: active = GI50 up to about 1.1 µM and inactive = higher.

How the values were obtained:
Test in all cases: inhibition of tumour cell growth, NCI panel, 48 h
SK-MEL-28 = tested on: SK-MEL-28
PC-3 = tested on: PC-3
SK-MEL-5 = tested on: SK-MEL-5
HCT-116 = tested on: HCT-116
TK-10 = tested on: TK-10
T47D = tested on: T47D
MDA-N = tested on: MDA-N
Malme-3M = tested on: Malme-3M
MDA-MB-435 = tested on: MDA-MB-435
RPMI-8226 = tested on: RPMI-8226
ACHN = tested on: ACHN
K562 = tested on: K562
UO-31 = tested on: UO-31
SR = tested on: SR
CCRF-CEM = tested on: CCRF-CEM
HOP-92 = tested on: HOP-92
786-0 = tested on: 786-0
OVCAR-3 = tested on: OVCAR-3
SF-539 = tested on: SF-539
A549 = tested on: A549

Row | SMILES | GI50 (SK-MEL-28) | GI50 (PC-3) | GI50 (SK-MEL-5) | GI50 (HCT-116) | GI50 (TK-10) | GI50 (T47D) | GI50 (MDA-N) | GI50 (Malme-3M) | GI50 (MDA-MB-435) | GI50 (RPMI-8226) | GI50 (ACHN) | GI50 (K562) | GI50 (UO-31) | GI50 (SR) | GI50 (CCRF-CEM) | GI50 (HOP-92) | GI50 (786-0) | GI50 (OVCAR-3) | GI50 (SF-539) | GI50 (A549)
1 | Cc1cc(S(=O)(=O)Nc2nnc3c(Cl)cc(C(F)(F)F)cn23)c(S)cc1Cl | > 100 µM (inactive) | 69.3 µM (inactive) | 22.8 µM (inactive) | 34.8 µM (inactive) | > 100 µM (inactive) | 37.2 µM (inactive) | 99.8 µM (inactive) | 91 µM (inactive) | 45.5 µM (inactive) | > 100 µM (inactive) | > 76.7 µM (inactive) | 66.2 µM (inactive) | 30.2 µM (inactive) | 66.8 µM (inactive) | > 84.7 µM (inactive) | > 100 µM (inactive) | 57.1 µM (inactive) | 49.9 µM (inactive) | 35.7 µM (inactive) | 51.6 µM (inactive)
2 | O=P(O)(O)CN1CCNCCN(CP(=O)(O)O)CCN(CP(=O)(O)O)CCNCC1 | > 100 µM (inactive) | > 100 µM (inactive) | 77300 µM (inactive) | 54600 µM (inactive) | > 100 µM (inactive) | 48300 µM (inactive) | 26400 µM (inactive) | 0.296 µM (active) | > 100 µM (inactive) | > 100 µM (inactive) | > 100 µM (inactive) | > 100 µM (inactive) | > 100 µM (inactive) | > 100 µM (inactive) | > 100 µM (inactive) | > 100 µM (inactive) | > 100 µM (inactive) | > 100 µM (inactive) | > 100 µM (inactive) | 42600 µM (inactive)
3 | CO/N=C(\C)c1cccc(Nc2nc3ccccc3c3occc23)c1 | 14.3 µM (inactive) | 14.5 µM (inactive) | 14.8 µM (inactive) | 11.6 µM (inactive) | 12.7 µM (inactive) | 11.1 µM (inactive) | 14.1 µM (inactive) | 15.7 µM (inactive) | 12.2 µM (inactive) | 12.9 µM (inactive) | 14 µM (inactive) | 16.4 µM (inactive) | < 0.01 µM (active) | 11.9 µM (inactive) | 12.5 µM (inactive) | 6.3 µM (inactive) | 13.8 µM (inactive) | 16.3 µM (inactive) | 13.6 µM (inactive) | 13.1 µM (inactive)
4 | Nn1c(Sc2nc3ccccc3c(=O)n2N)nc2ccccc2c1=O | 4.84 µM (inactive) | 11.7 µM (inactive) | 3.96 µM (inactive) | 2.99 µM (inactive) | 21.2 µM (inactive) | 5.09 µM (inactive) | 4.04 µM (inactive) | 3.57 µM (inactive) | 6.22 µM (inactive) | 3.5 µM (inactive) | 8.95 µM (inactive) | 2.12 µM (inactive) | 1.73 µM (inactive) | 2.02 µM (inactive) | 0.94 µM (active) | 6.92 µM (inactive) | 4.72 µM (inactive) | 11.1 µM (inactive) | 2.48 µM (inactive) | 14.2 µM (inactive)
5 | O=C1CC(C(O)CO)CC(=O)N1 (stereo not given) | > 100 µM (inactive) | > 100 µM (inactive) | > 100 µM (inactive) | > 100 µM (inactive) | > 100 µM (inactive) | > 100 µM (inactive) | > 100 µM (inactive) | > 100 µM (inactive) | > 100 µM (inactive) | > 100 µM (inactive) | > 100 µM (inactive) | > 100 µM (inactive) | > 100 µM (inactive) | > 100 µM (inactive) | > 100 µM (inactive) | > 100 µM (inactive) | > 100 µM (inactive) | > 100 µM (inactive) | > 100 µM (inactive) | > 100 µM (inactive)
